Five molecules from patent publication US20050267030A1, “Use of deltaPKC peptides for modulation of reactive oxygen species” (priority 2004, published 2005) can be followed below.

Assay [1] deals with rat vascular smooth muscle cells. The assay is described as follows: Production of reactive oxygen species (superoxide) in vitro, loss of tempoamine signal by electron spin resonance. The assay is classed as cell-based. As to conditions: FIG. 2. Here is the method: Example 1 details a study where inhibitors and activators of δPKC were administered to rat vascular smooth muscle cells in vitro. Cells were incubated in presence of (1) the agonist Tat-conjugated peptide ψδRACK (SEQ ID NO:5); (2) phorbol 12-myristate 13-acetate (PMA); or (3) the antagonist Tat-conjugated peptide δV1-1 (SEQ ID NO:3) plus PMA. A control cell sample was left untreated. Tempoamine ((2,2,6,6-tetramethyl-1-piperidi-nyloxy-4-amine)) was added to each culture and the loss of tempoamine signal was measured by electron spin resonance to measure superoxide production.
PMA, a non-isozyme specific activator of PKC, stimulated a 3-4 fold increase in ROS in the cells. […] Inhibition of this PKC isoform caused a decrease in PMA-stimulated ROS production.
Rat vascular smooth muscle cells were harvested from Zucker lean aortas by enzymatic digestion and cultured in Dulbecco's modified eagle's medium with 10% fetal bovine serum and penicillin/streptomycin under standard tissue culture conditions. The cells were incubated in the presence tempoamine ((2,2,6,6-tetramethyl-1-piperidi-nyloxy4-amine)) (100 μM) and in the presence of (1) the agonist Tat-conjugated peptide ψδRACK (10 μM); (2) phorbol 12-myristate 13-acetate (PMA, 500 ng/mL); or (3) the antagonist Tat-conjugated peptide δV1-1 (10 μM) plus PMA (500 ng/mL). A control cell sample was left untreated. The loss of tempoamine signal was measured by electron spin resonance to measure superoxide production.

The test system of assay [2] is Zucker obese rats (fa/fa). The experiment in a line: ROS (superoxide) production in aorta tissue homogenates of Zucker rats, electron spin resonance. The assay is classed as in vivo, rat. As to conditions: Zucker obese rats treated, versus Zucker lean control, FIG. 3A. Here is the method: Tissue homogenates from the aortas of Zucker obese rats and of Zucker lean (Fa/fa) rats were prepared and analyzed for superoxide production using electron spin resonance with a tempomaine probe.

Another assay has as its system TGF-β1. The experiment in a line: TGF-β1 gene expression in rat vascular smooth muscle cells, TaqMan real time PCR. It counts as cell-based. As to the method:
(§1) In another study, described in Example 4, the gene transcriptional effects of insulin and the selective inhibition of PKC isoforms was examined using real-time polymerase chain reaction (TaqMan® PCR). In vitro cells were incubated with insulin and in the presence or absence of a δPKC inhibitor, δV1-1 peptide. The expression of TGF-β and core binding factor α-1 (Cbf α-1) were monitored using TaqMan® real time PCR. Rat vascular smooth muscle cells passages three through seven were prepared as describe in Example 1B. The cells were incubated with insulin (100 nm, SourceLife Technologies) or with the δPKC inhibitor peptide δV1-1, prepared as described in Example 1A. RNA isolation and purification were performed as described in Example 2 and TaqMan® real time PCR was used to analyze the relative quantity TGF-β1 and core binding factor α-1 (Cbf α-1). PCR primers and probes were obtained commercially from Applied Biosystems, Inc. and the PCR was performed on an Applied Biosystems ABI Prism 7700.
A general note: Real-time PCR tracks product formation cycle by cycle.

Another assay deals with Cbfa-1. The experiment in a line: Cbfa-1 gene expression in rat vascular smooth muscle cells, TaqMan real time PCR. It counts as cell-based. To be noted: cells incubated with Tat-conjugated peptide versus untreated control, FIG. 5C. As to the method:
as §1

For a further assay, the system named is δPKC. The experiment in a line: Translocation of δPKC in cells incubated with insulin, Western blot of cytosol and membrane fractions. As to conditions: bovine insulin 100 nM, up to 24 hours, semi-quantitative from Western blot, FIG. 4B. It counts as cell-based, rat. Here is the method: Example 3 describes a study conducted to examine to role of PKC isozymes, and in particular δPKC, in vascular fibrosis, which is accelerated during the insulin-resistant, pre-diabetic state in animals. In this study, rat vascular smooth muscle cells were incubated with bovine insulin. Translocation of PKC isozymes was assessed by Western blot analysis of the cystosolic and membrane (particulate) fractions of the cells. The subcellular localization of various PKC isozymes was assessed by […] by probing the blot with isozyme specific antibodies, such as anti-δPKC, anti-αPKC, and anti-ε PKC, etc. […]
Rat vascular smooth muscle cells passages three through seven were prepared as described in Example 1 B. The cells were incubated with bovine insulin (100 nM) for time periods of up to 24 hours. Activation of various PKC isozymes was analyzed by harvesting the cells and separating the protein into cytosolic and membrane (particulate) fractions and examining both fractions by Western blot using anti-δPKC, anti-αPKC, and anti-ε PKC for the presence of different PKC isoforms. The activity of the isoform was assessed as amount of PKC in the membrane fraction divided by the total amount of protein in both fractions (cytosol and membrane), normalized to control.
(Immunoblotting shows a protein as a band on a membrane.)

Ends that are not written are not given here.

On to `CCCCCCCCCCCCCC(=O)O[C@@H]1[C@@H](C)[C@@]2(O)[C@@H](C=C(CO)C[C@]3(O)C(=O)C(C)=C[C@@H]23)[C@@H]2C(C)(C)[C@]12OC(C)=O` [PMA, phorbol 12-myristate 13-acetate, reference compound], for which the “increase in ROS in the cells” value in assay [1] (PMA 500 ng/mL, tempoamine 100 μM) is given as 3-4 fold. Turning to `O=C1CSC(=O)N1` [TZD1], the “ROS production in aorta homogenates” value in assay [2] is on record as “brought the ROS production down to control levels”. As to “MRAAEDPM (not fully specified; also: Tat conjugated; listed as Rattus norvegicus) [ψδRACK, δPKC agonist peptide, amino acids 74-81 of δPKC]”, in assay [1] (Tat-conjugated peptide 10 μM, tempoamine 100 μM, versus untreated control), the “production of ROS” value is on record as “increased production of ROS”. With “SFNSYELGSL (not fully specified; also: Tat conjugated; listed as Rattus norvegicus) [δV1-1, δPKC antagonist peptide, amino acids 8-17 of δPKC]”, the “ROS production stimulated by PMA” value in assay [1] (Tat-conjugated peptide 10 μM co-incubated with PMA 500 ng/mL) was “effective to reverse or inhibit a significant part of the ROS production stimulated by PMA”. In addition, the TGF-β1 expression entry with TGF-β1 (cells incubated with Tat-conjugated peptide versus untreated control, FIG. 5B) was “inhibited”. Moreover, the Cbfa-1 gene expression result in the assay with Cbfa-1 is “inhibited”.

Take “insulin: bovine insulin incubated with rat vascular smooth muscle cells”: the “relative δPKC activity (membrane fraction / total, normalized to control)” value with δPKC is “about 1.7”. Moreover, the “normalized TGF-β expression” value in the assay with TGF-β1 (cells incubated with insulin (100 nm) versus untreated control, FIG. 5A) is on record as “did not appear to stimulate”.
